Assay [1] relates to CLL cells (leukemic lymphocytes, MNCs). Kind of assay: Mitochondrial membrane potential (CMXRos / anti-glycophorin A-FITC, flow cytometry). Type of assay: cell-based, human. Particulars: for mean percentage of cells with lower mitochondrial potential (ΔΨm^low/Gly-A^−): 1.6 μM. The source says: Mitochondrial membrane potential is an early indicator of apoptosis. CMXRos, i.e. Chloromethyl-X-rosamine (the reagent's name by Mito Tracker Red CMXRos, Molecular Probes, USA), and a monoclonal antibody to glycophorin A conjugated with FITC (the reagent's name of Anti-Glycophorin A FITC by Dako, Denmark) were used for its assessment. CMXRos is a lipophilic cationic dye that accumulates in the mitochondrial matrix of viable cells when there is an electronegative load on the inner surface of the mitochondrial membrane. This asymmetric location of protons along the inner mitochondrial membrane leads to a high mitochondrial membrane potential (ΔΨm) in living cells. A decreased ΔΨm is one of the first symptoms of apoptosis, and in effect lowering of the mitochondrial uptake of CMXRos.
The stock CMXRos solution was prepared by dilution of the substance supplied by the manufacturer in 94 μl. DMSO (dimethylsulphoxide), and stored at […]. Then working solution was prepared also using DMSO (1:10) and stored at 4° C. Mononuclear cells, i.e. leukemic lymphocytes, at 1×10^6 MNCs/ml concentration, were incubated with CMXRos (2.5 μl working solution in 500 μl RPMI 1640 medium) at 37° C. for 30 minutes. […] The samples were next measured using flow cytometry. The percentage of cells not bound to anti-glycophorin A-FITC (ΔΨm^low/GIy-A^− cells), with low mitochondrial potential, was calculated.
All fluorescence measurements were performed by a flow cytometer FACSCalibur (Becton Dickinson, USA) equipped with an argon laser 488nm and computer program CeliQuestPro (Becton Dickinson, USA). Each time 10 000cells were evaluated. The fluorescence was measured using standard emission filters: green—FL1 (wavelength λ=530±20 nm) and red—FL3 (λ>600 nm).
Background: A flow cytometer gives signals particle by particle.

For a further assay, the system named is CLL cells (MEC-1). Kind of assay: Annexin-V / propidium iodide apoptosis test with 25%, 30%, 40%, 45% maltotriose dendrimers and FA. Type of assay: cell-based, human. The following applies: 1.6 μM.

“And” between values parts separate entries of the source, which are not always exact repeats. Equal entries are not always repeated.

As to rituximab, in assay [1] (10 μg/ml), the “apoptosis-inducing action (mitochondrial potential)” value was “apoptosis-inducing action in order of spontaneous apoptosis”.

As to `Nc1nc(F)nc2c1ncn2[C@@H]1O[C@H](CO)[C@@H](O)[C@@H]1O` [FA, fludarabine], the “mean percentage of cells with lower mitochondrial potential (ΔΨm^low/Gly-A^−)” value in assay [1] (24 h) turned out to be 52.05%. Also, in assay [1] (48 h), the “mean percentage of cells with lower mitochondrial potential (ΔΨm^low/Gly-A^−)” value was determined as 74.49%. Moreover, in the assay on CLL cells (MEC-1) (24 h), the “Ann+ IP+ (late apoptosis), mean percentage of cells” value is 6.51% and 10.83% and 6.50%; the “Ann+ IP− (early apoptosis), mean percentage of cells” value is 3.82% and 3.98% and 3.77%; the “CAI (compensating apoptotic index)” value was 1.87% and 7.35% and 4.40%. In the assay on CLL cells (MEC-1) (48 h), the “Ann− IP+ (necrosis), mean percentage of cells” value is 22.82% and 15.00% and 20.27%; the “CAI (compensating apoptotic index)” value was 6.98% and 7.80% and 12.83%.

The values are drawn from patent US10022395B2 (UNIWERSYTET LÓDZKI, priority 2012, dated 2018).
